# Where “and” joins values, the source holds several entries; their conditions need not be identical. Equal values may be shown once.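 Grown in 96-well plates, cells were treated for 48 hours with each compound at five concentrations. Insufficient inhibition: endpoint recorded as highest concentration tested. At the GI50, growth is halved. At the TGI there is no net growth.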 Where a SMILES comes first, the peptide text is derived from it. [ ]: non-standard residue; d: D form. The star is where a group is joined. Bn2Val = CC(C)[C@@H](C(=O)*)N(Cc1ccccc1)Cc1ccccc1; NH(3,4-diMeO-benzyl) = COc1ccc(CN*)cc1OC; NMeV = CN[C@H](C(=O)O)C(C)C; dNMeA = CN[C@H](C)C(=O)O
# Assays:
# Experiment in all cases: inhibition of tumour cell growth, NCI panel, 48 h
# U251 CNS = tested on: U251 CNS
# NCI-H460 lung = tested on: NCI-H460 lung
# NCI-H226 lung = tested on: NCI-H226 lung
# KM12 colon = tested on: KM12 colon
# NCI-H522 lung = tested on: NCI-H522 lung
# CAKI-1 renal = tested on: CAKI-1 renal
# NCI-H23 lung = tested on: NCI-H23 lung
# A549 NSCLC = tested on: A549 NSCLC
# SK-OV-3 ovarian = tested on: SK-OV-3 ovarian
# M14 melanoma = tested on: M14 melanoma
SMILES,TGI (U251 CNS),TGI (NCI-H460 lung),TGI (NCI-H226 lung),TGI (KM12 colon),TGI (NCI-H522 lung),TGI (CAKI-1 renal),TGI (NCI-H23 lung),TGI (A549 NSCLC),TGI (SK-OV-3 ovarian),TGI (M14 melanoma),GI50 (U251 CNS) [µM],GI50 (NCI-H460 lung) [µM],GI50 (NCI-H226 lung) [µM],GI50 (KM12 colon) [µM],GI50 (NCI-H522 lung) [µM],GI50 (CAKI-1 renal) [µM],GI50 (NCI-H23 lung) [nM],GI50 (A549 NSCLC) [µM],GI50 (SK-OV-3 ovarian) [µM],GI50 (M14 melanoma) [µM]
CCOc1ccc2nc(NC(=O)/C(CC(=O)CC(C3=C(O)c4ccccc4CC3=O)c3ccccc3)=N\O)sc2c1 (configuration not stated),> 100 µM,> 100 µM,> 100 µM,> 100 µM,> 100 µM,> 100 µM,> 100 µM,> 100 µM,> 100 µM,> 100 µM,,,,,,,,,,
CC1=C2[C@@H](CC1)[C@]1(C)O[C@@](C(C)C)(C[C@H]1OC(=O)[C@H](C)O)[C@H]2OC(=O)/C=C/c1ccccc1,28 µM,36.7 µM,29.6 µM,33 µM,29.1 µM,26 µM,33.3 µM,28.9 µM,38 µM,32.5 µM,14.2,14.8,12.9,14.8,13.3,6.12,14300,12.5,15.3,13.4
Clc1ccc(Cc2nc3cc4ccccc4cc3[nH]2)cc1,29.6 µM,> 100 µM,> 100 µM,> 100 µM,> 100 µM,69.9 µM,> 100 µM,> 100 µM,83.3 µM,> 100 µM,10.5,2.22,30.1,9.64,82,6.55,28800,6.83,14.7,53.1
COc1ccc(/C=C(/C(=O)O)c2cc(OC)c(OC)c(OC)c2)cc1,> 100 µM,> 100 µM,> 100 µM,> 100 µM,36.6 µM,> 100 µM,> 100 µM,> 100 µM,> 100 µM,99.1 µM,,,,,,,,,,
CN=C1NC(=O)/C(=C/c2ccc3ncccc3c2)S1,> 25 µM,> 25 µM,> 25 µM,> 25 µM,> 25 µM,> 20.9 µM,> 25 µM,> 25 µM,24.8 µM,> 25 µM,5.19,7.79,8.16,19.9,3.28,4.6,8380,5.13,7.76,9.6
Cn1cc(C2=C(c3ccc(OC[C@@H](O)CO)cc3)C(=O)NC2=O)c2ccccc21,> 25 µM,> 25 µM,> 25 µM,> 25 µM,> 25 µM,> 25 µM,> 25 µM,> 25 µM,> 25 µM,> 25 µM,> 25,> 25,> 25,> 25,> 25,> 25,> 25000,> 25,> 25,> 25
COc1ccccc1NC(=O)c1ccc(/C=C/C(=O)c2nccn2C)cc1,1.02 µM,1.52 µM,1.69 µM,0.872 µM,1.52 µM,1.32 µM,1.5 µM,8.75 µM,10.7 µM,1.31 µM,0.434,0.572,0.588,0.44,0.584,0.453,561,0.74,1.06,0.536
NS(=O)(=O)c1ccc(-n2nc(-c3ccc(Br)cc3)ccc2=O)cc1,> 10 µM,> 10 µM,> 10 µM,> 10 µM,> 10 µM,> 10 µM,> 10 µM,> 10 µM,> 10 µM,> 10 µM,> 10,> 10,> 10,> 10,2.09,> 10,> 10000,> 10,> 10,> 10
CC[n+]1ccc2c(c1)C(=O)c1nccc3c1c-2nc1ccccc13,1.28 µM,2.65 µM,5.51 µM,15.2 µM,1.45 µM,> 33.3 µM,2.64 µM,13.5 µM,4.83 µM,4.38 µM,0.35,0.12,1.13,2.41,0.538,2.1,280,0.958,0.799,0.943
CC(=O)c1ccc(N(/C=C/C(=O)C(F)(F)F)CC(=O)c2ccc(Cl)c(Cl)c2)cc1,27.7 µM,> 100 µM,27.3 µM,27.1 µM,27.7 µM,33.1 µM,35.6 µM,33.5 µM,38.9 µM,26.7 µM,14,15.6,10.9,12.8,13.2,16.4,18000,14.2,18.1,13.3
O=C1c2ccccc2C(=O)c2c1ccc1[nH]c(CCl)nc21,6.56 µM,15.1 µM,7.96 µM,10.8 µM,3.53 µM,9.89 µM,3.6 µM,10.2 µM,9.08 µM,22.8 µM,2.21,3.97,2.56,3.14,1.63,2.61,1650,2.81,3.67,9.97
"COc1ccc(CNC(=O)[C@@H](C)N(C)C(=O)[C@@H]2CCCN2C(=O)[C@H](C(C)C)N(C)C(=O)[C@@H](NC(=O)[C@H](C(C)C)N(Cc2ccccc2)Cc2ccccc2)C(C)C)cc1OC (Bn2Val-V[NMeV]P[dNMeA]-{NH(3,4-diMeO-benzyl)})",22.1 µM and 20 µM,50 µM and 37.9 µM,15.3 µM and 31.3 µM,30 µM and 27.4 µM,10.7 µM and 45.1 µM,47 µM and 30.5 µM,26.6 µM and 42.4 µM,50 µM and > 100 µM,36.3 µM and 96.7 µM,16.9 µM and > 100 µM,,8.21,13.7,,9.05,12.7,,53.3,23.6,63.2
C1CN2N3CCCC23C1 (configuration not stated),> 100 µM,> 100 µM,> 100 µM,> 100 µM,> 100 µM,> 100 µM,> 100 µM,> 100 µM,> 100 µM,> 100 µM,,,,,,,,,,
CN1CCCNCCN(CCc2ccccn2)CCCN(C)CC1,> 100 µM,> 100 µM,> 100 µM,> 100 µM,> 100 µM,> 100 µM,> 100 µM,> 100 µM,> 100 µM,> 100 µM,,,,,,,,,,
CC(=O)OCCc1cccnc1/C=N/O,> 100 µM,> 100 µM,> 100 µM,> 100 µM,> 100 µM,> 100 µM,> 100 µM,> 100 µM,> 100 µM,> 100 µM,,,,,,,,,,
O=C(O/N=C1/CCC/C1=C\c1ccccc1)c1ccc([N+](=O)[O-])cc1,> 100 µM,> 100 µM,> 100 µM,> 100 µM,> 100 µM,> 100 µM,> 100 µM,> 100 µM,> 100 µM,> 100 µM,,,,,,,,,,
CN(C)S(=O)(=O)Nc1ccccn1,> 100 µM,> 100 µM,> 100 µM,> 100 µM,> 100 µM,> 100 µM,> 100 µM,> 100 µM,> 100 µM,> 100 µM,,,,,,,,,,
COC(=O)c1c2c(c(C)[n+]([O-])c1C)C(=O)C=CC2=O,2.83 µM,7.4 µM,2.98 µM,4.77 µM,3.67 µM,4.2 µM,4.27 µM,11.6 µM,5.38 µM,3.45 µM,1.48,2.72,1.42,1.99,1.66,1.95,1630,3.12,2.26,1.78
O=C1CCC(NC(=O)c2ccccc2)C(=O)N1 (configuration not stated),> 100 µM,> 100 µM,> 100 µM,> 100 µM,> 100 µM,> 100 µM,> 100 µM,> 100 µM,> 100 µM,> 100 µM,,,,,,,,,,
CNC(=O)c1cc(Oc2ccc3c(c2)sc2nc(-c4ccc(N)cc4)cn23)ccn1,> 100 µM,20.6 µM,> 100 µM,> 100 µM,0.573 µM,> 100 µM,> 100 µM,> 100 µM,> 100 µM,> 100 µM,0.194,0.289,2.01,0.196,0.165,0.329,491,0.474,0.47,0.162
Fc1ccc(-c2nn(-c3ccccc3)cc2-c2nc3ccccc3o2)cc1,16.5 µM,9.95 µM,32 µM,> 100 µM,16.8 µM,> 100 µM,11.7 µM,16.4 µM,> 100 µM,15.1 µM,1.93,2.84,13.6,3.25,3.62,3.13,2260,3.46,8.46,3.91
CCCNC(=O)OCc1c(COC(=O)NCCC)c(-c2ccc(Cl)c(Cl)c2)n2c1CCC2,28.9 µM,17.2 µM,7.53 µM,28.5 µM,4.32 µM,8.2 µM,26.5 µM,33.2 µM,10.5 µM,24.4 µM,,,,,,,,,,
O=C(Nc1ccccc1[N+](=O)[O-])c1ccccc1,> 100 µM,> 100 µM,> 100 µM,> 100 µM,> 100 µM,> 100 µM,> 100 µM,> 100 µM,> 100 µM,> 100 µM,,,,,,,,,,
COc1cc2c(cc1OC)C1C=NC(C(=O)O)(C2)c2ccccc21 (configuration not stated),> 100 µM,> 100 µM,> 100 µM,> 100 µM,> 100 µM,> 100 µM,> 100 µM,> 100 µM,> 100 µM,> 100 µM,,,,,,,,,,
O=C(O)/C=C/C(=O)Nc1ncn[nH]1,> 100 µM,> 100 µM,> 100 µM,> 100 µM,> 100 µM,> 100 µM,> 100 µM,> 100 µM,> 100 µM,> 100 µM,,,,,,,,,,
CN(C)c1ccc(/C=C2\C[N+](C)(C)C/C(=C\c3ccc(N(C)C)cc3)C2=O)cc1,25 µM,> 59 µM,90.8 µM,19.1 µM,26.2 µM,> 100 µM,54.4 µM,> 100 µM,73.1 µM,74.8 µM,,,,,,,,,,
Cc1c(N2C(=O)/C(=C\c3ccccc3O)N=C2c2ccccc2)c(=O)n(-c2ccccc2)n1C,> 100 µM,> 100 µM,> 100 µM,> 100 µM,> 100 µM,76.9 µM,> 100 µM,> 100 µM,> 100 µM,> 100 µM,40.2,> 100,63.7,21,64,15.6,> 100000,> 100,57.3,> 100
N#Cc1cnn2ccn(C3OC(COC(=O)c4ccccc4)C(OC(=O)c4ccccc4)C3OC(=O)c3ccccc3)c12 (configuration not stated),> 21.5 µM,> 21.5 µM,> 21.5 µM,21.5 µM,> 21.5 µM,21.5 µM,> 21.5 µM,> 21.5 µM,> 21.5 µM,> 21.5 µM,,,,,,,,,,
C[Si](C)(C)c1ccc(CC2(Cc3ccc([Si](C)(C)C)cc3)CCNC2)cc1,3.02 µM,3.73 µM,3.34 µM,3.62 µM,3.28 µM,5.29 µM,3.47 µM,5.22 µM,3.8 µM,3.31 µM,,,,,,,,,,
